For 12 compounds, AC50 results are on record in ChEMBL document CHEMBL5291721, “A preclinical secondary pharmacology resource illuminates target-adverse drug reaction associations of marketed drugs” (Nat Commun, 2023).

Usually AC50 stands for the midpoint of the concentration-response curve, whichever way the signal moves. Read a high AC50 as weaker potency.

The target in experiment [1] is T1, 5-hydroxytryptamine receptor 1A (Homo sapiens, UniProt P08908).
T1 sequence (P08908 whole entry): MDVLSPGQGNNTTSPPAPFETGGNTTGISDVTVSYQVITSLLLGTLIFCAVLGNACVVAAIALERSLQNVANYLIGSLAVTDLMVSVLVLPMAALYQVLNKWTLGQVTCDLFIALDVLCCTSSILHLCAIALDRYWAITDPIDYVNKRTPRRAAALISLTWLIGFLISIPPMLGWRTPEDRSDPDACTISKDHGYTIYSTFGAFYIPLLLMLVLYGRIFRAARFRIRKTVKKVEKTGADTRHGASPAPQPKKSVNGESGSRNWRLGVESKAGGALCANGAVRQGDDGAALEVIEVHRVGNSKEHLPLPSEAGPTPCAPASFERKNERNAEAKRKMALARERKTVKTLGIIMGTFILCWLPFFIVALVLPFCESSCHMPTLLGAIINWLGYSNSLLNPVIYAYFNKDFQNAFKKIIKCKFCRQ

For experiment [2], the target named is T2, Muscarinic acetylcholine receptor M1 (Homo sapiens, UniProt P11229).
T2 sequence (P11229 whole entry): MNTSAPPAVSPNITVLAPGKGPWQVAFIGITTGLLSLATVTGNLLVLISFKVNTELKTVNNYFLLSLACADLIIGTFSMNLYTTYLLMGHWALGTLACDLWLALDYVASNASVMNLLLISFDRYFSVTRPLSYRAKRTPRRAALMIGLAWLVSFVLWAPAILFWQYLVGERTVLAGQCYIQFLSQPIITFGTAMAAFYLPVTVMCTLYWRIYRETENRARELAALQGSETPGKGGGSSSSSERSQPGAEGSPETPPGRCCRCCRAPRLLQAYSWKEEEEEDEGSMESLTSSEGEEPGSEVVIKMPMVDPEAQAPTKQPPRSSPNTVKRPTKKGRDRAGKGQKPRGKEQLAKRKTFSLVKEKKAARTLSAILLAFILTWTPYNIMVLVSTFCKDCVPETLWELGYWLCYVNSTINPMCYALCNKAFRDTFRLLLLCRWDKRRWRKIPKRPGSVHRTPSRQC
The experiment is classed as functional, cell-based.

A further experiment addresses T3, Thromboxane A2 receptor (Homo sapiens, UniProt P21731).
T3 sequence (P21731 whole entry): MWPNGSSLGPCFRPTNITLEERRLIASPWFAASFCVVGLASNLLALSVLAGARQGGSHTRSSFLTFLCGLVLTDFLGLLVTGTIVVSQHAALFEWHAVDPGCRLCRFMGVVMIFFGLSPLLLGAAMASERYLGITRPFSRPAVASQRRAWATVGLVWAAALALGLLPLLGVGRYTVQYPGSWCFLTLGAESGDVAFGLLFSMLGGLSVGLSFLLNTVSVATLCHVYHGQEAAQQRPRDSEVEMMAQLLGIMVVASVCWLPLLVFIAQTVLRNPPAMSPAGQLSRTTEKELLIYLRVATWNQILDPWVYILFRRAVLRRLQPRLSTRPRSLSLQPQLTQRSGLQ
The experiment is classed as functional, cell-based.

Experiment [3] concerns the target Sodium-dependent serotonin transporter (Homo sapiens, UniProt P31645).
For experiment [4], the target named is T4, Alpha-1A adrenergic receptor (Homo sapiens, UniProt P35348).
T4 sequence (P35348 whole entry): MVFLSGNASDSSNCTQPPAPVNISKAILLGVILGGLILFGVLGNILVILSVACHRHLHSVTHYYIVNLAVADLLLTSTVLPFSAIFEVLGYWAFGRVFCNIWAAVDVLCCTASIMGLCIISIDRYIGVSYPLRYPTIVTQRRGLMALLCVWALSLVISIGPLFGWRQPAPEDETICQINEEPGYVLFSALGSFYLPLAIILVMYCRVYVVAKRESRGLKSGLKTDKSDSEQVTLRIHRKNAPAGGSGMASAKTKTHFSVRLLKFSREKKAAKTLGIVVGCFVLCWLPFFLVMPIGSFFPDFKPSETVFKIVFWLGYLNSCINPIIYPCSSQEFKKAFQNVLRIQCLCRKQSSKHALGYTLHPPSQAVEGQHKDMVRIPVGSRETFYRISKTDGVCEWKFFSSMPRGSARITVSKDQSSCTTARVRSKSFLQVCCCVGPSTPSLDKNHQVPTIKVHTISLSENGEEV
The experiment is classed as functional, cell-based.

A further experiment addresses T5, Progesterone receptor (Homo sapiens, UniProt P06401).
T5 sequence (P06401 whole entry): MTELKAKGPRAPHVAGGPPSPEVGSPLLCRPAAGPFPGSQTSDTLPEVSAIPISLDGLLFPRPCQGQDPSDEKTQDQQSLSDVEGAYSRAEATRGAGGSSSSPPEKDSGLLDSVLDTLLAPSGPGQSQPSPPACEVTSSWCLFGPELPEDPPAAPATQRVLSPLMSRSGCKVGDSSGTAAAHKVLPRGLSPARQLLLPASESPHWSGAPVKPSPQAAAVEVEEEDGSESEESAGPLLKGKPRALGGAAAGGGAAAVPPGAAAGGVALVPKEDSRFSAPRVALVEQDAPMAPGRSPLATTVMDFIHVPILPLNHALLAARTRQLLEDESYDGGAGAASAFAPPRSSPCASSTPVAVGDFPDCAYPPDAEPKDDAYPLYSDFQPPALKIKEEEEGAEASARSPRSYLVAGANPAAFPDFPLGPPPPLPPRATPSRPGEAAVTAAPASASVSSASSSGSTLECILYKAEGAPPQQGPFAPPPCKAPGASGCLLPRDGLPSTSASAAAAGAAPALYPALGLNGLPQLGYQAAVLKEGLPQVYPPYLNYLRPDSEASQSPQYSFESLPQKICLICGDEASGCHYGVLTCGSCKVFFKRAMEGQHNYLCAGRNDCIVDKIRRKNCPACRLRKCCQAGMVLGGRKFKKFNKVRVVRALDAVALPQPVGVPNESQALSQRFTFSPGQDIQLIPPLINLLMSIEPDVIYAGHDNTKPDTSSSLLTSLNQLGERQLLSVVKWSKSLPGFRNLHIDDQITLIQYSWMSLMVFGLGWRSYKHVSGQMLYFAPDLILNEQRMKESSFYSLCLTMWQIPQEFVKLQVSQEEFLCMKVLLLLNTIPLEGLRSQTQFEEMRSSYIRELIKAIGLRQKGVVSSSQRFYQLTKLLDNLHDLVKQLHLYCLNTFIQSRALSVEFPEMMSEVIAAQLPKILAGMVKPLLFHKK

For experiment [5], the target named is Sodium-dependent dopamine transporter (Homo sapiens, UniProt Q01959).
Sodium-dependent dopamine transporter, sequence (Q01959 whole entry): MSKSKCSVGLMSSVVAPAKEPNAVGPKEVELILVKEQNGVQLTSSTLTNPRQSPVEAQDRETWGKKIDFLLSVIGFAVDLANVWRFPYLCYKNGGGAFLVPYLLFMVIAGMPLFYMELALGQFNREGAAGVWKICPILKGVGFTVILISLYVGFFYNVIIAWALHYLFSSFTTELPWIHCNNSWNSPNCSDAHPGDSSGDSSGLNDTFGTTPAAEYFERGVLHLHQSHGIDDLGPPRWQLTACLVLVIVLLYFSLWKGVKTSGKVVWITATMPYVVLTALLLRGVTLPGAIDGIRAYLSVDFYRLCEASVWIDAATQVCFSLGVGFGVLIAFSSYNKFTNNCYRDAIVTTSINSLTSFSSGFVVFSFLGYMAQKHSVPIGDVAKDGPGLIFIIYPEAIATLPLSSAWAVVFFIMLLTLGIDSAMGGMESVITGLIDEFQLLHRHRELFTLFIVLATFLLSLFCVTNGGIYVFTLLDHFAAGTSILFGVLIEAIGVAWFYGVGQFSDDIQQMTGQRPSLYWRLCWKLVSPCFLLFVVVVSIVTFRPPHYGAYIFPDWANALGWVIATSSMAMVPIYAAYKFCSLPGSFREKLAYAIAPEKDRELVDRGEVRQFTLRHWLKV
For a further experiment, the target named is D(1A) dopamine receptor (Homo sapiens, UniProt P21728).
D(1A) dopamine receptor, sequence (P21728 whole entry): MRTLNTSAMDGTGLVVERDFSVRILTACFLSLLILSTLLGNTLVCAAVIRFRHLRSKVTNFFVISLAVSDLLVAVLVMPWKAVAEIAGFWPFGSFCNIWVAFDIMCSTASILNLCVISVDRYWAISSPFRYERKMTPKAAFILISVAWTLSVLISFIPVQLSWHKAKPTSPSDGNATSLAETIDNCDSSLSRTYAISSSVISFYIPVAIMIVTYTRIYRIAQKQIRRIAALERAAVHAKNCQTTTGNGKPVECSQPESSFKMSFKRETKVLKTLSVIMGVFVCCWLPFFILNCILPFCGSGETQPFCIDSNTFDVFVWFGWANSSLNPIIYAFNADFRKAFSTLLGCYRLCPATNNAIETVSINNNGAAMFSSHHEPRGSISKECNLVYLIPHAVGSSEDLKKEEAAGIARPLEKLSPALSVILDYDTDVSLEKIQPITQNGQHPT
The target of experiment [6] is Sodium-dependent noradrenaline transporter (Homo sapiens, UniProt P23975).
Sodium-dependent noradrenaline transporter, sequence (P23975 whole entry): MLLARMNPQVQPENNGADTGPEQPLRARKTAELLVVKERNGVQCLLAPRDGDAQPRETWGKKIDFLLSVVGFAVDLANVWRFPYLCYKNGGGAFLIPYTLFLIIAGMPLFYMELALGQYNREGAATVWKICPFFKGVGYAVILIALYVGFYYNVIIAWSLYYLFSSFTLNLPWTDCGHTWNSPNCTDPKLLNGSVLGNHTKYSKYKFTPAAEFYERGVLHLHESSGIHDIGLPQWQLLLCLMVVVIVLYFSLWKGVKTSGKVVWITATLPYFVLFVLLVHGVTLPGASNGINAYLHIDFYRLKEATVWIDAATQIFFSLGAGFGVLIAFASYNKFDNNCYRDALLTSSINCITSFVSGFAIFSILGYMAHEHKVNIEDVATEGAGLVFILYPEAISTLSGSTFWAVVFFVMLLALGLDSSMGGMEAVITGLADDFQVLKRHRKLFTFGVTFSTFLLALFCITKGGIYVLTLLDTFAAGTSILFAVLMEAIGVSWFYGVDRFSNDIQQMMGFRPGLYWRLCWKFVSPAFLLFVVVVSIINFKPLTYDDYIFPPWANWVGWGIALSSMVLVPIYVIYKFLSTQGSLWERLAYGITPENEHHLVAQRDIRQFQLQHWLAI
For experiment [7], the target named is 3',5'-cyclic-AMP phosphodiesterase 4A (Homo sapiens, UniProt P27815). The experiment is classed as functional.
3',5'-cyclic-AMP phosphodiesterase 4A, sequence (P27815 whole entry): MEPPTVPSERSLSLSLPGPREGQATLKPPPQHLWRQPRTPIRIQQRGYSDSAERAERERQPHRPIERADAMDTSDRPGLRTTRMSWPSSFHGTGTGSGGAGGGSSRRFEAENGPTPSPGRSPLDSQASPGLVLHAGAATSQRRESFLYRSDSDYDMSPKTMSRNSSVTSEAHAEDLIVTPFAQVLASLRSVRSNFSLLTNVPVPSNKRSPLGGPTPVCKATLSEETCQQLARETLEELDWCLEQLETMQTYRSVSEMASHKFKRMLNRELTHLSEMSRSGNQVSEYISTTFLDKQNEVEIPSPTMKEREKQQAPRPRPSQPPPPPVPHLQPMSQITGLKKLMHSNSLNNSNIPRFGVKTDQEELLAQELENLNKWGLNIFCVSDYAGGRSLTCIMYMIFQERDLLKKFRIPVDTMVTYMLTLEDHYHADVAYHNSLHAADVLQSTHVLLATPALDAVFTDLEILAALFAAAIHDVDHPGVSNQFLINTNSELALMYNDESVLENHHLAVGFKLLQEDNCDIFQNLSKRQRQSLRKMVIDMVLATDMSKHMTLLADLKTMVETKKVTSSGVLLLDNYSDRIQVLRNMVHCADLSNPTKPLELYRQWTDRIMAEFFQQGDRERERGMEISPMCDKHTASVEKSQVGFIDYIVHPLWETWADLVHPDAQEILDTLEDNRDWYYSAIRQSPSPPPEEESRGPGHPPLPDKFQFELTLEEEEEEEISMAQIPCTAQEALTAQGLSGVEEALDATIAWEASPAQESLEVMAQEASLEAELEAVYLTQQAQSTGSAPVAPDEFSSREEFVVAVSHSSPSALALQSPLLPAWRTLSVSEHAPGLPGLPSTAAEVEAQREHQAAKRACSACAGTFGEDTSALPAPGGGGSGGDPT
Also: assay procedure not described here.

Sodium-dependent serotonin transporter, sequence (P31645 whole entry): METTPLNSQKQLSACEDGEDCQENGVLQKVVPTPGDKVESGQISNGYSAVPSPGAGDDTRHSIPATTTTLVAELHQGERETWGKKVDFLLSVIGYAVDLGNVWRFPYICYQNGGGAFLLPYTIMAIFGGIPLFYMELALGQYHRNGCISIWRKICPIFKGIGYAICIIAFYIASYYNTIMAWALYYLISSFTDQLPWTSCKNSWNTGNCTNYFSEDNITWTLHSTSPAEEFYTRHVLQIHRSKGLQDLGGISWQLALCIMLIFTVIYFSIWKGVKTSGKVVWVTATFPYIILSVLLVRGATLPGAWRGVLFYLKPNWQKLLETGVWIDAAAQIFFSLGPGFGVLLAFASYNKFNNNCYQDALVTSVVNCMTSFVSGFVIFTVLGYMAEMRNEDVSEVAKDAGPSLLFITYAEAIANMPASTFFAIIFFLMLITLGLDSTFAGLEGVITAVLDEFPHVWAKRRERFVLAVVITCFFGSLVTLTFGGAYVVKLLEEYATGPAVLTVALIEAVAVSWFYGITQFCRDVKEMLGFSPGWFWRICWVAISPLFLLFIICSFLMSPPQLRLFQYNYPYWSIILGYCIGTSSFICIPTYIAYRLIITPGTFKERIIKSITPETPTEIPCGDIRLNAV

Regarding `CCN(CC)CCc1nc(-c2ccccc2)no1` [OXOLAMINE], the AC50 in experiment [1] was 15.5 µM; in [2] it was above 30 µM; on Thromboxane A2 receptor it was above 30 µM; in [3] it was above 30 µM; in experiment [4], above 30 µM; on Progesterone receptor it was above 30 µM. The AC50 (in [5]; at D(1A) dopamine receptor; in experiment [6]; in [7]) was above 30 µM in each case.

On to `C[N+]1(CCCCC[N+]2(C)CCCC2)CCCC1` [PENTOLINIUM], for which the AC50 (in experiment [1]; in experiment [2]; at Thromboxane A2 receptor; in experiment [3]; in experiment [4]; on Progesterone receptor) was above 30 µM each time. Also, the half-maximal activity concentration (AC50) (in experiment [5]; on D(1A) dopamine receptor; in experiment [6]; in [7]) was above 30 µM in each case.

`O=C(O)c1ccccc1C(=O)Nc1ccc(S(=O)(=O)Nc2nccs2)cc1` [PHTHALYLSULFATHIAZOLE]: the AC50 was above 10 µM in experiment [1]; above 30 µM in experiment [2]; above 30 µM at Thromboxane A2 receptor; above 30 µM in experiment [3]; above 30 µM in experiment [4]; above 30 µM on Progesterone receptor. The AC50 (in experiment [5]; on D(1A) dopamine receptor; in experiment [6]; in [7]) was above 30 µM in each case.

On to `CC(C)(C)C(=O)OCOC(=O)[C@@H]1N2C(=O)[C@@H](NC(=O)[C@H](N)c3ccccc3)[C@H]2SC1(C)C` [PIVAMPICILLIN], for which the AC50 (in [1]; in experiment [2]; on Thromboxane A2 receptor; in experiment [3]; in [4]; at Progesterone receptor) was above 30 µM throughout. For the same compound, the AC50 (in [5]; on D(1A) dopamine receptor; in experiment [6]; in experiment [7]) was above 30 µM each time.

Turning to `O=[N+]([O-])c1cn2c(n1)OC[C@@H](OCc1ccc(OC(F)(F)F)cc1)C2` [PRETOMANID], the AC50 is above 30 µM in [1]; above 30 µM in [2]; above 30 µM at Thromboxane A2 receptor; above 30 µM in experiment [3]; above 10 µM in [4]; above 30 µM on Progesterone receptor. Further, the AC50 (in experiment [5]; at D(1A) dopamine receptor; in experiment [6]; in experiment [7]) was above 30 µM throughout.

With `OC(CCN1CCCCC1)(c1ccccc1)c1ccccc1` [PRIDINOL], the AC50 in experiment [1] was 29.8 µM; in [2] it was above 30 µM; on Thromboxane A2 receptor, above 30 µM; in experiment [3], above 30 µM; in experiment [4] it was above 30 µM; on Progesterone receptor it was above 30 µM. Moreover, the AC50 (in experiment [5]; on D(1A) dopamine receptor; in experiment [6]; in experiment [7]) was above 30 µM throughout.

For the compound `O=C(Oc1ccc2c(c1)CCCN2C(=O)C(Cl)Cl)c1ccco1` [QUINFAMIDE], the AC50 (in experiment [1]; in [2]; on Thromboxane A2 receptor; in experiment [3]; in experiment [4]; at Progesterone receptor) was above 30 µM in each case. For the same compound, the AC50 (in experiment [5]; at D(1A) dopamine receptor; in experiment [6]; in [7]) was above 30 µM in each case.

For `CC(C)COC(=O)OCN1C(=O)CN(CCN2CC(=O)N(COC(=O)OCC(C)C)C(=O)C2)CC1=O` [SOBUZOXANE], the AC50 (in experiment [1]; in experiment [2]; on Thromboxane A2 receptor; in experiment [3]; in experiment [4]; at Progesterone receptor) was above 30 µM throughout. Further, the AC50 (in [5]; at D(1A) dopamine receptor; in experiment [6]; in [7]) was above 30 µM in each case.

In the case of `Cc1cc(NS(=O)(=O)c2ccc(N)cc2)nc(C)n1` [SULFISOMIDINE], the AC50 (in experiment [1]; in experiment [2]; at Thromboxane A2 receptor; in experiment [3]; in [4]; on Progesterone receptor) was above 30 µM in each case. Besides, the AC50 in experiment [5] is above 30 µM; on D(1A) dopamine receptor, above 30 µM; in [6], above 30 µM; in [7], 3.58 µM.

Turning to `OB1OCc2cc(F)ccc21` [TAVABOROLE], the concentration at half-maximal activity (AC50) (in experiment [1]; in experiment [2]; at Thromboxane A2 receptor; in experiment [3]; in experiment [4]; on Progesterone receptor) was above 30 µM in each case. In addition, the AC50 (in experiment [5]; on D(1A) dopamine receptor; in [6]; in [7]) was above 30 µM each time.

On to `CCCCCNC(=N)N/N=C/c1c[nH]c2ccc(OC)cc12` [TEGASEROD], for which the AC50 in experiment [1] is 0.04 µM; in [2] it was above 3 µM; at Thromboxane A2 receptor it was above 3 µM; in experiment [3], 2.57 µM; in experiment [4], above 3 µM; at Progesterone receptor, above 30 µM. For the same compound, the half-maximal activity concentration (AC50) in experiment [5] is 1.85 µM; at D(1A) dopamine receptor, 0.73 µM; in experiment [6], 0.26 µM; in [7], above 30 µM.

Turning to `CC(C)(C)NCC(O)COc1cccc2c1SCCC2` (stereo not given) [TERTATOLOL], the AC50 in [1] was 0.0569 µM; in experiment [2], above 30 µM; at Thromboxane A2 receptor it was above 30 µM; in experiment [3], 17.3 µM; in experiment [4], above 30 µM; on Progesterone receptor it was above 30 µM. The AC50 in [5] is above 30 µM; on D(1A) dopamine receptor it was above 30 µM; in experiment [6], 29.6 µM; in experiment [7], above 30 µM.
